Measured values from ChEMBL document CHEMBL3600373, “Mapping Selective Inhibition of the Cancer-Related Carbonic Anhydrase IX Using Structure-Activity Relationships of Glucosyl-Based Sulfamates” (J Med Chem, 2015).

How the values were obtained:
Carbonic anhydrase 9 [1] = molecular target: T1, Carbonic anhydrase 9 (Homo sapiens, UniProt Q16790)
Description: Inhibition of human recombinant CA9 expressed in Escherichia coli by stopped flow CO2 hydration assay

Carbonic anhydrase 12 = Carbonic anhydrase 12 (Homo sapiens, UniProt O43570); test: Inhibition of human recombinant CA12 expressed in Escherichia coli by stopped flow CO2 hydration assay
Carbonic anhydrase 9 [2] = molecular target: T1, Carbonic anhydrase 9; test: Binding affinity to human CA9
Carbonic anhydrase 2 = Carbonic anhydrase 2 (Homo sapiens, UniProt P00918); test: Binding affinity to human CA2

Carbonic anhydrase 12, sequence (O43570 whole entry): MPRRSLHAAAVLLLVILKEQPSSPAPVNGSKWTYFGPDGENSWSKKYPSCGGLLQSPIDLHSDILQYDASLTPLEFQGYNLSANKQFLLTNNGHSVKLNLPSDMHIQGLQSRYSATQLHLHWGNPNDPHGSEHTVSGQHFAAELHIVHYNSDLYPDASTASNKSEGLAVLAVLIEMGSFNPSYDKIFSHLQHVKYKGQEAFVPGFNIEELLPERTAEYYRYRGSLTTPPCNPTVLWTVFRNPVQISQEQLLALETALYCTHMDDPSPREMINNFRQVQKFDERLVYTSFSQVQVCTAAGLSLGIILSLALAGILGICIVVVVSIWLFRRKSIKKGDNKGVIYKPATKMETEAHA

What does the source list for CC(=O)OC[C@H]1O[C@@H](S(=O)(=O)NCCCCCOS(N)(=O)=O)[C@H](OC(C)=O)[C@@H](OC(C)=O)[C@@H]1OC(C)=O?
Ki (Carbonic anhydrase 9 [1]): 2 nM; Ki (Carbonic anhydrase 12): 9 nM

Which Kd (Carbonic anhydrase 9 [2]) does the source give for OC[C@H]1O[C@@](CO)(O[C@H]2O[C@H](CO)[C@@H](O)[C@H](O)[C@H]2O)[C@@H](O)[C@@H]1O [SUCROSE] here?
Its Kd is 150 mM.

What about the Kd (Carbonic anhydrase 2) of the same molecule?
The Kd was 450 mM.
